From ChEMBL document CHEMBL1275247, “Pharmacokinetics and safety of CXA-101, a new antipseudomonal cephalosporin, in healthy adult male and female subjects receiving single- and multiple-dose intravenous infusions” (Antimicrob Agents Chemother, 2010)

Assays:
[1] = Volume of distribution at steady state in healthy human at 1500 mg, iv administered as 1 hr infusion every 12 hrs for 10 days measured on day 1; type: ADME, organism-based; settings: in vivo
[2] = Mean residence time in healthy human at 500 mg, iv administered as 1 hr infusion every 8 hrs for 10 days measured on day 1; type: ADME, organism-based; settings: in vivo
[3] = Half-life in plasma of healthy human 500 mg administered as single ascending dose, iv for 1 hr infusion; type: ADME, organism-based
[4] = AUC (0 to infinity) in healthy human at 1500 mg, iv administered as 1 hr infusion every 12 hrs for 10 days measured on day 10; type: ADME, organism-based; set-up: dose 1500 mg, route intravenous, time infinity; settings: plasma
[5] = Tmax in healthy human at 500 mg, iv administered as 1 hr infusion every 8 hrs for 10 days measured on day 1; type: ADME, organism-based; settings: in vivo
[6] = AUC (0 to infinity) in healthy human at 2000 mg, iv administered as single dose as 1 hr iv infusion; type: ADME, organism-based; set-up: dose 2000 mg, route intravenous, time infinity; settings: plasma
[7] = AUC (0 to infinity) in healthy human at 500 mg, iv administered as 1 hr infusion every 8 hrs for 10 days measured on day 10; type: ADME, organism-based; set-up: dose 500 mg, time infinity, route intravenous; settings: plasma
[8] = Drug recovery in urine of healthy human at 2000 mg, iv administered as single dose as 1 hr iv infusion after 24 hrs; type: ADME, organism-based; settings: read-out: Activity
[9] = Tmax in healthy human at 1500 mg, iv administered as single dose as 1 hr iv infusion; type: ADME, organism-based; settings: in vivo
[10] = test system: Homo sapiens; assay: Toxicity in healthy human assessed as occurrence of diarrhea at 500 mg, iv administered as 1 hr infusion every 8 hrs for 10 days; type: organism-based; settings: in vivo
[11] = Drug recovery in urine of healthy human at 1000 mg, iv administered as single dose as 1 hr iv infusion after 24 hrs; type: ADME, organism-based; settings: read-out: Activity
[12] = Tmax in healthy human at 500 mg, iv administered as single dose as 1 hr iv infusion; type: ADME, organism-based; settings: in vivo
[13] = Mean residence time in healthy human at 1000 mg, iv administered as 1 hr infusion every 8 hrs for 10 days measured on day 10; type: ADME, organism-based; settings: in vivo
[14] = Mean residence time in healthy human at 500 mg, iv administered as 1 hr infusion every 8 hrs for 10 days measured on day 10; type: ADME, organism-based; settings: in vivo
[15] = Tmax in healthy human at 1000 mg, iv administered as 1 hr infusion every 8 hrs for 10 days measured on day 1; type: ADME, organism-based; settings: in vivo
[16] = Cmax in healthy human at 500 mg, iv administered as 1 hr infusion every 8 hrs for 10 days measured on day 10; type: ADME, organism-based; set-up: dose 500 mg, route intravenous; settings: in vivo
[17] = Clearance in healthy human at 1000 mg, iv administered as 1 hr infusion every 8 hrs for 10 days measured on day 10; type: ADME, organism-based; settings: in vivo
[18] = Tmax in healthy human at 1000 mg, iv administered as single dose as 1 hr iv infusion; type: ADME, organism-based; settings: in vivo
[19] = Half-life in plasma of healthy human 2000 mg administered as single ascending dose, iv for 1 hr infusion; type: ADME, organism-based
[20] = Renal clearance in healthy human at 1500 mg, iv administered as 1 hr infusion every 12 hrs for 10 days measured on day 10; type: ADME, organism-based, Kidney; settings: in vivo, read-out: CL_renal
[21] = Clearance in healthy human at 1000 mg, iv administered as 1 hr infusion every 8 hrs for 10 days measured on day 1; type: ADME, organism-based; settings: in vivo
[22] = AUC (0 to infinity) in healthy human at 250 mg, iv administered as single dose as 1 hr iv infusion; type: ADME, organism-based; set-up: dose 250 mg, route intravenous, time infinity; settings: plasma
[23] = Drug recovery in urine of healthy human at 1000 mg, iv administered as 1 hr infusion every 8 hrs for 10 days measured on day 1; type: ADME, organism-based; settings: read-out: Activity
[24] = test system: Homo sapiens; assay: Toxicity in healthy human assessed as occurrence of nausea at 1000 mg, iv administered as single dose as 1 hr iv infusion; type: organism-based; settings: in vivo
[25] = Half-life in plasma of healthy human 500 mg, iv administered as 1 hr infusion every 8 hrs for 10 days measured on day 1; type: ADME, organism-based
[26] = Half-life in plasma of healthy human 250 mg administered as single ascending dose, iv for 1 hr infusion; type: ADME, organism-based
[27] = Renal clearance in healthy human at 1500 mg, iv administered as single dose as 1 hr iv infusion; type: ADME, organism-based, Kidney; settings: in vivo, read-out: CL_renal
[28] = Half-life in plasma of healthy human 1500 mg administered as single ascending dose, iv for 1 hr infusion; type: ADME, organism-based
[29] = Volume of distribution at steady state in healthy human at 1000 mg, iv administered as single dose as 1 hr iv infusion; type: ADME, organism-based; settings: in vivo
[30] = Volume of distribution at steady state in healthy human at 500 mg, iv administered as 1 hr infusion every 8 hrs for 10 days measured on day 10; type: ADME, organism-based; settings: in vivo
[31] = AUC (0 to infinity) in healthy human at 1000 mg, iv administered as 1 hr infusion every 8 hrs for 10 days measured on day 10; type: ADME, organism-based; set-up: dose 1000 mg, time infinity, route intravenous; settings: plasma
[32] = AUC (0 to infinity) in healthy human at 500 mg, iv administered as single dose as 1 hr iv infusion; type: ADME, organism-based; set-up: dose 500 mg, time infinity, route intravenous; settings: plasma
[33] = Tmax in healthy human at 1500 mg, iv administered as 1 hr infusion every 12 hrs for 10 days measured on day 1; type: ADME, organism-based; settings: in vivo
[34] = Volume of distribution at steady state in healthy human at 1000 mg, iv administered as 1 hr infusion every 8 hrs for 10 days measured on day 10; type: ADME, organism-based; settings: in vivo
[35] = Renal clearance in healthy human at 1000 mg, iv administered as single dose as 1 hr iv infusion; type: ADME, organism-based, Kidney; settings: in vivo, read-out: CL_renal
[36] = Volume of distribution at steady state in healthy human at 1500 mg, iv administered as 1 hr infusion every 12 hrs for 10 days measured on day 10; type: ADME, organism-based; settings: in vivo
[37] = Mean residence time in healthy human at 500 mg, iv administered as single dose as 1 hr iv infusion; type: ADME, organism-based; settings: in vivo
[38] = test system: Homo sapiens; assay: Toxicity in healthy human assessed as occurrence of somnolence at 1000 mg, iv administered as single dose as 1 hr iv infusion; type: organism-based; settings: in vivo
[39] = AUC (0 to infinity) in healthy human at 1500 mg, iv administered as single dose as 1 hr iv infusion; type: ADME, organism-based; set-up: dose 1500 mg, time infinity, route intravenous; settings: plasma
[40] = Clearance in healthy human at 1500 mg, iv administered as 1 hr infusion every 12 hrs for 10 days measured on day 1; type: ADME, organism-based; settings: in vivo
[41] = Tmax in healthy human at 1000 mg, iv administered as 1 hr infusion every 8 hrs for 10 days measured on day 10; type: ADME, organism-based; settings: in vivo
[42] = Cmax in healthy human at 1000 mg, iv administered as 1 hr infusion every 8 hrs for 10 days measured on day 10; type: ADME, organism-based; set-up: dose 1000 mg, route intravenous; settings: in vivo
[43] = Tmax in healthy human at 500 mg, iv administered as 1 hr infusion every 8 hrs for 10 days measured on day 10; type: ADME, organism-based; settings: in vivo
[44] = Clearance in healthy human at 500 mg, iv administered as 1 hr infusion every 8 hrs for 10 days measured on day 1; type: ADME, organism-based; settings: in vivo
[45] = Volume of distribution at steady state in healthy human at 2000 mg, iv administered as single dose as 1 hr iv infusion; type: ADME, organism-based; settings: in vivo

Cn1c(N)c(NC(=O)NCCN)c[n+]1CC1=C(C(=O)O)N2C(=O)[C@@H](NC(=O)/C(=N\OC(C)(C)C(=O)[O-])c3nsc(N)n3)[C@H]2SC1 [CEFTOLOZANE]
Vd [1]: 18.1 L
MRT [2]: 2.42 h
half-life [3]: 2.34 h
AUC(0-inf) [4]: 207 µg·h/mL
Tmax [5]: 1.03 h
AUC(0-inf) [6]: 344 µg·h/mL
AUC(0-inf) [7]: 82.9 µg·h/mL
dose excreted at 24 h [8]: 97.7%
Tmax [9]: 1.03 h
Activity [10]: Non-toxic
dose excreted at 24 h [11]: 85.2%
Tmax [12]: 1.03 h
MRT [13]: 2.45 h
MRT [14]: 2.32 h
Tmax [15]: 1.03 h
Cmax [16]: 33300 ng/mL
clearance [17]: 116 mL/min
Tmax [18]: 1.05 h
half-life [19]: 2.45 h
CL renal [20]: 127 mL/min
clearance [21]: 112 mL/min
AUC(0-inf) [22]: 40.1 µg·h/mL
dose excreted at 1 day [23]: 99.4%
Activity [24]: Non-toxic
half-life [25]: 2.21 h
half-life [26]: 1.86 h
CL renal at 1 h [27]: 96.2 mL/min
half-life [28]: 2.62 h
Vd [29]: 16.3 L
Vd [30]: 14 L
AUC(0-inf) [31]: 143 µg·h/mL
AUC(0-inf) [32]: 84.1 µg·h/mL
Tmax [33]: 1.03 h
Vd [34]: 17.1 L
CL renal at 1 h [35]: 93.4 mL/min
Vd [36]: 18.1 L
MRT [37]: 2.5 h
Activity [38]: Non-toxic
AUC(0-inf) [39]: 243 µg·h/mL
clearance [40]: 114 mL/min
Tmax [41]: 1.05 h
Cmax [42]: 58000 ng/mL
Tmax [43]: 0.93 h
clearance [44]: 94.6 mL/min
Vd [45]: 14.8 L
